Experimental data as given in patent publication US20080275134A1, “Methods for Treatment of Retinal Degenerative Disease” (University of Washington, priority 2005, published 2008).

Tests used:
A2E formation = settings: in vivo; cited from earlier work
[1] = test system: regeneration of vision chromophore (11-cis-retinal); experiment: regeneration of 11-cis-retinal in mouse eyes after gavage and light bleach, HPLC retinoid analysis; format: in vivo; settings: 50 mg/kg, tested in parallel with Ret-NH2
Description: Mice were gavaged with all-trains-Ret-NH2, exposed to intense light for 20 min, and then allowed to recover in the dark for 5 hours. The total amount of different forms of retinoids in all experiments was unchanged. […] For this experiment mice were treated with both 9-cis-retinol and all-trans-Ret-NH2, and bleached after 24 hours, and were allowed to recover for 5 hours in the dark. The presence of 9-cis-retinal was confirmed in treated animals (see peaks 4 and 4′ in FIG. 4A bottom panel, corresponding to syn- and anti-9-cis-retinal oximes, respectively). 11-cis-Retinal was not reduced and/or esterified after treatment with Ret-NH2. […] This supports the idea that Ret-NH2 is a specific inhibitor of the isomerization reaction.
A. Chromatographic separation of nonpolar retinoids from WT mouse eyes. Mice were gavaged with all-trans-Ret-NH2 24 hours prior to bleaching for 20 min at 150 cd·m^−2 W in the Ganzfeld chamber. Regeneration of 11-cis-retinal was allowed for 24 hours in the dark, and retinoids were extracted from the eye and separated by normal phase HPLC as described in Materials and Methods. The peaks were identified based on elution time and absorption spectra correspond to the following retinoids: 1, all-trans-retinyl esters; 2,2′, syn- and anti-11-cis-retinal oximes; 3, syn-all-trans-retinal oxime; 4,4′, syn- and anti-9-cis-retinal oximes; 5, all-trans-retinol. B. Changes of 11-cis-retinal oxime levels at increasing doses of all-trans-Ret-NH2 during 5 hours or 24 hours of dark adaptation. Square indicates the level of 11-cis-retinal oximes that was present in mice gavaged with vegetable oil without retinoids just after bleaching, and arrow indicates the increase of visual chromophore during 5 hours of dark adaptation. Triangles correspond to the level of 11-cis-retinal found in the mice gavaged with 50 mg/kg of 13-cis-RA. C and D. Single flash ERG responses of increasing intensity for all-trans-Ret-NH2 treated mice and control mice. Serial responses to increasing flash stimuli were obtained for all-trans-Ret-NH2 treated and control mice for selected intensities (C) and plotted as a function of a-wave and b-wave versus varying light intensities under dark-adapted conditions (D) before bleach and at 5 hours and 24 hours after bleach. The dark-adapted mice were bleached with intense constant illumination (150 cd·m^−2) for 20 min. […] SE bars are shown.
Chromatographic separation of nonpolar retinoids from WT mouse eyes. Mice were gavaged with 100 mg/kg of all-trans-Ret-NH2 24 hours prior to bleaching. Mice were next exposed to 500 cd m^−2 for 48 min bleaching in the Ganzfeld chamber. Regeneration of 11-cis-retinal was allowed for 24 hours in the dark, and retinoids were extracted from the eye and separated by normal phase HPLC as described in Materials and Methods. The peaks identified based on elution time and absorption spectra correspond to the following retinoids: 1, all-trans-retinyl esters; 2,2′, syn- and anti-1-cis-retinal oximes; 3,3′ syn- and anti-all-trans-retinal oximes; 4, all-trans-retinol.
Mice were gavaged with the solution of inhibitor in vegetable oil (control—non-treated, RPN—retinylpalmitamide, RAN—retinylacetamide, Ret—NH2-all-trans-retinylamine), kept in dark for 16 hours, then light stimulated and kept in dark for additional 5 hours before their eyes were analyzed.
Mouse retinoid extraction and analysis—Retinoid analysis was performed under dim red light as described previously (Maeda et al., J. Neurochem 85:944-956, 2003; Van Hooser et al., J Biol Chem 277:19173-82, 2002). Mice were gavaged with retinoids as described previously (Van Hooser et al., J Biol Chem 277:19173-82, 2002).

11-cis-RDH = settings: cited from earlier work
CYP26A1 = target: T1, CYP26A1 (Homo sapiens, UniProt O43174); experiment: oxidation in HEK-293 cells transfected with CYP26A1 cDNA; format: in vitro ADME
T1 construct: expressed in transfected cells; host or cells: HEK-293
T1 sequence (O43174 1-497): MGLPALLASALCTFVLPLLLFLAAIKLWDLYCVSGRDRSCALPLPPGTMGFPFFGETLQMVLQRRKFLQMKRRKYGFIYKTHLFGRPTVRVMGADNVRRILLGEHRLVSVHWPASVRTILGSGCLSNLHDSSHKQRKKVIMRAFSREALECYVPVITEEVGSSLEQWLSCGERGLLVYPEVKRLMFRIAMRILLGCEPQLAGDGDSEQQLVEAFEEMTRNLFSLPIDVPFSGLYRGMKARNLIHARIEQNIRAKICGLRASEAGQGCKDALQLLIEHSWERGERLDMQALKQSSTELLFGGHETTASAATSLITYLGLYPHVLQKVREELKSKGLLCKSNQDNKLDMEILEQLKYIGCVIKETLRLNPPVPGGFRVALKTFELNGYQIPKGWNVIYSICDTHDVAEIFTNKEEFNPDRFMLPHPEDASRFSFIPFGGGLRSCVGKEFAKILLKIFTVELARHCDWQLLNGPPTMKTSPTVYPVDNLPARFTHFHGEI
Description: Next, the RA oxidation pathway was investigated. […] In addition to secretion, Ret-NH2 might be degraded first by deamination to all-trans-retinol/retinal, which was seen to increase in Ret-NH2 treated cells. […] These observations explain the long-lasting effect of RetNH2, as the amide is stored and hydrolyzed back to the free amine.

Row | oxidation by CYP26A1 (CYP26A1) | Compound | formation of A2E (A2E formation) | effect on chromophore recovery at 50 mg/kg [1] | inhibition of 11-cis-RDH (11-cis-RDH)
1 |  | CC1=C(/C=C/C(C)=C/C=C/C(C)=C\C(=O)O)C(C)(C)CCC1 [13-cis-RA, 13-cis-retinoic acid] | blocked the formation of A2E | ineffective | inhibits 11-cis-RDH
2 | readily oxidized | CC1=C(/C=C/C(C)=C/C=C/C(C)=C/C(=O)O)C(C)(C)CCC1 [retinoic acid, reference compound] |  |  | 
